# Data taken from ChEMBL document CHEMBL1155336, “Design and discovery of 1,3-benzodiazepines as novel dopamine antagonists” (Bioorg Med Chem Lett, 2009).
# Key:
# Homo sapiens = species on record: Homo sapiens; test: Selectivity ratio, the ratio of ki for human D2 receptor to Ki for human D1 receptor
# [1] = Ionization constant for the compound (pKa); assay type: physicochemical
SMILES,Ratio (Homo sapiens),pKa [1]
CC1=NCCc2cc(Cl)c(O)cc2N1Cc1ccccc1,3,–
Oc1cc2c(cc1Cl)CCN=C(NC1CC1)N2,6,–
CC1=NCCc2cc(Cl)c(O)cc2N1c1ccc(C)cc1,55,–
CC1=NCCc2cc(Cl)c(O)cc2N1c1ccccc1,36,–
Oc1cc2c(cc1Cl)CCN=C(c1ccccc1)N2,42,–
CN(C)c1ccc(/C=C/C2=NCCc3cc(Cl)c(O)cc3N2c2ccccc2)cc1,23,–
CCCC/N=C/N(C)c1ccccc1,–,8.9
Oc1cc2c(cc1Cl)CCN=C(NCCc1ccccc1)N2,1,–
CC1=NCCc2cc(Cl)c(O)cc2N1c1ccsc1,32,–
COc1ccc(/C=C/C2=NCCc3cc(Cl)c(O)cc3N2)cc1,3,–
CNC1=NCCc2cc(Cl)c(O)cc2N1,13,–
CSC1=NCCc2cc(Cl)c(O)cc2N1,5,–
Oc1cc2c(cc1Cl)CCN=C(SCc1ccccc1)N2,2,–
CC1=NCCc2cc(Cl)c(O)cc2N1c1ccccc1C,31,–
Oc1cc2c(cc1Cl)CCN=C(C1CC1)N2,1,–
Oc1cc2c(cc1Cl)CCN=C(NC1CCCC1)N2,12,–
NC1=NCCc2cc(Cl)c(O)cc2N1,1,–
Oc1cc2c(cc1Cl)CCN=C(NC1CCCCC1)N2,12,–
COc1ccc(C2CC2C2=NCCc3cc(Cl)c(O)cc3N2)cc1 (centres undefined),3,–
CC(C)CC1=NCCc2cc(Cl)c(O)cc2N1,17,–
N=C(N)Nc1ccccc1 [PHENYLGUANIDINE],–,10.8
CN(C)c1ccc(/C=C/C2=NCCc3cc(Cl)c(O)cc3N2C2CCCCC2)cc1,8,–
COc1ccc2cc(C3=NCCc4cc(Cl)c(O)cc4N3)ccc2c1,4,–
Oc1cc2c(cc1Cl)CCN=C(C1CCCCC1)N2,7,–
